Patent US20180155757A1, “IDENTIFICATION OF BACTERIA THAT ARE RESISTANT TO CARBAPENEMS BY MEMBRANE IMPERVIOUSNESS” (BIOMÉRIEUX, priority 2015, published 2018)

Assays:
Experiment in all cases: Etest MIC of indicator carbapenems on MH II agar without/with PMBN
Type in all cases: cell-based
[1] = tested on: E. coli 1008077 (VIM-1 producer)
Procedure: (§1) The determinations of antibiotic MIC were carried out on solid culture media with the Etest® method. To do this, Etest® strips (bioMérieux, France) were used: • Etest® Imipenem IM 32, and • Etest® Ertapenem ETP 32, and also solid culture media, differing from one another by virtue of their non-inhibitory concentrations of PMBN.
(§2) These solid culture media are prepared in Petri dishes (0=145 mm; V=50 ml) on a base of MH II Agar (Becton Dickinson®, United States), more or less supplemented with PMBN. The PMBN concentrations range from 0 up to concentrations equivalent to one fifth of the MIC of PMBN (⅕ MICPMBN).
(§3) Using a swab and the Retro C80™ rota-plater (bioMérieux, France), the culture media were inoculated with the bacteria, originating from an inoculum of 0.5 McFarland, prepared in 0.85% NaCl solution from colonies subcultured the day before on MH II agar.
(§4) The various Etest® strips are then deposited on the surface of the culture media. After 16 to 20 hours of incubation at 35° C., the MICS were read.
(§5) To do this, imipenem and ertapenem were used as indicator carbapenems. Non-inhibitory concentrations of PMBN, equivalent to concentrations of one tenth ( 1/10), one eighth (⅛) and one fifth (⅕) of the MIC of PMBN, were applied.

[2] = tested on: E. cloacae 9304026
Procedure: as §1, §2, §3, §4, §5

[3] = tested on: E. cloacae 1204052 (membrane impermeability)
Method in brief: (§6)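 Etest imipenem/ertapenem/meropenem (IM 32, ETP 32, MP 32). Medium: MH II agar, PMBN 0 to ⅕ MIC. Inoculum: 0.5 McFarland, 0.85% NaCl, swabbed. Read: 16–20 h at 35° C.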

[4] = tested on: E. cloacae 1204051 (membrane impermeability)
Method in brief: as §6

[5] = tested on: K. pneumoniae 1012142 (KPC-2 producer)
Method in brief: as §6

[6] = tested on: E. cloacae 1204058 (membrane impermeability); conditions: in µg/mL
Method in brief: as §6

[7] = tested on: K. pneumoniae 1108003 (KPC-3 producer)
Method in brief: as §6

[8] = tested on: E. cloacae 1204056 (membrane impermeability)
Method in brief: as §6

[9] = tested on: K. pneumoniae KP 63 (porin−); conditions: Klebsiella pneumoniae
Method in brief: as §6

[10] = tested on: E. cloacae 1008080 (IMP producer); conditions: in µg/mL
Method in brief: as §6

[11] = tested on: E. coli 1008078 (VIM producer)
Method in brief: as §6

[12] = tested on: K. pneumoniae 1204036 (membrane impermeability)
Method in brief: as §6

[13] = tested on: E. cloacae 1204153 (membrane impermeability); conditions: in µg/mL
Method in brief: as §6

[14] = tested on: E. cloacae 1008074 (VIM producer)
Method in brief: as §6

[15] = tested on: K. pneumoniae 1204039 (membrane impermeability)
Method in brief: as §6

[16] = tested on: E. cloacae 1204053 (membrane impermeability)
Method in brief: as §6

[17] = tested on: E. cloacae 1109137 (OXA-48 producer)
Method in brief: as §6

[18] = tested on: Enterobacter aerogenes EA 5 (porin−); conditions: Klebsiella aerogenes
Method in brief: as §6

[19] = tested on: E. coli SAB 100 (porin−); conditions: Escherichia coli
Method in brief: as §6

Compound: C[C@@H](O)[C@H]1C(=O)N2C(C(=O)O)=C(SCCN=CN)C[C@H]12 [IM, imipenem]
- MIC ([1]; [PMBN] 0): 16 µg/mL
- MIC ([1]; [PMBN] MIC/5): 16 µg/mL
- MIC ([1]; [PMBN] MIC/8): 16 µg/mL
- MIC ([1]; [PMBN] MIC/10): 8 µg/mL
- MIC ([2]; [PMBN] 0): 8 µg/mL
- MIC ([2]; [PMBN] MIC/5): 4 µg/mL
- MIC ([2]; [PMBN] MIC/8): 4 µg/mL
- MIC ([2]; [PMBN] MIC/10): 4 µg/mL
- MIC ([3]; [PMBN] 0, Table 4a): 3 µg/mL
- MIC ([3]; [PMBN] 100, Table 4a): 3 µg/mL
- MIC ([3]; [PMBN] 200, Table 4a): 2 µg/mL
- MIC ([3]; [PMBN] 300, Table 4a): 1.5 µg/mL
- MIC ([4]; [PMBN] 0, Table 4a): 1.5 µg/mL
- MIC ([4]; [PMBN] 100, Table 4a): 1.5 µg/mL
- MIC ([4]; [PMBN] 200, Table 4a): 0.75 µg/mL
- MIC ([4]; [PMBN] 300, Table 4a): 0.75 µg/mL
- MIC ([5]; [PMBN] 0, Table 4a): > 32 µg/mL
- MIC ([5]; [PMBN] 100, Table 4a): > 32 µg/mL
- MIC ([5]; [PMBN] 200, Table 4a): > 32 µg/mL
- MIC ([5]; [PMBN] 300, Table 4a): > 32 µg/mL
- MIC ([6]; [PMBN] 0, Table 4a): >32
- MIC ([6]; [PMBN] 100, Table 4a): 12
- MIC ([6]; [PMBN] 200, Table 4a): 4
- MIC ([6]; [PMBN] 300, Table 4a): 3
- MIC ([7]; [PMBN] 0, Table 4a): 6 µg/mL
- MIC ([7]; [PMBN] 100, Table 4a): 8 µg/mL
- MIC ([7]; [PMBN] 200, Table 4a): 12 µg/mL
- MIC ([7]; [PMBN] 300, Table 4a): 12 µg/mL
- MIC ([8]; [PMBN] 0, Table 4a): 6 µg/mL
- MIC ([8]; [PMBN] 100, Table 4a): 2 µg/mL
- MIC ([8]; [PMBN] 200, Table 4a): 1.5 µg/mL
- MIC ([8]; [PMBN] 300, Table 4a): 1 µg/mL
- MIC ([9]; [PMBN] 0): 0.25 µg/mL
- MIC ([9]; [PMBN] 50 μg/ml): 0.25 µg/mL
- MIC ([9]; [PMBN] 100 μg/ml): 0.125 µg/mL
- MIC ([9]; [PMBN] 150 μg/ml): 0.125 µg/mL
- MIC ([9]; [PMBN] 200 μg/ml): 0.125 µg/mL
- MIC ([10]; [PMBN] 0, Table 4a): 1
- MIC ([10]; [PMBN] 100, Table 4a): 12
- MIC ([10]; [PMBN] 200, Table 4a): 3
- MIC ([10]; [PMBN] 300, Table 4a): 6
- MIC ([11]; [PMBN] 0, Table 4a): 0.38 µg/mL
- MIC ([11]; [PMBN] 100, Table 4a): 1.5 µg/mL
- MIC ([11]; [PMBN] 200, Table 4a): 0.75 µg/mL
- MIC ([11]; [PMBN] 300, Table 4a): 0.38 µg/mL
- MIC ([12]; [PMBN] 0, Table 4a): 2 µg/mL
- MIC ([12]; [PMBN] 100, Table 4a): 2 µg/mL
- MIC ([12]; [PMBN] 200, Table 4a): 2 µg/mL
- MIC ([12]; [PMBN] 300, Table 4a): 1.5 µg/mL
- MIC ([13]; [PMBN] 0, Table 4a): 4
- MIC ([13]; [PMBN] 100, Table 4a): 4
- MIC ([13]; [PMBN] 200, Table 4a): 2
- MIC ([13]; [PMBN] 300, Table 4a): 4
- MIC ([14]; [PMBN] 0, Table 4a): 3 µg/mL
- MIC ([14]; [PMBN] 100, Table 4a): 3 µg/mL
- MIC ([14]; [PMBN] 200, Table 4a): 8 µg/mL
- MIC ([14]; [PMBN] 300, Table 4a): 6 µg/mL
- MIC ([15]; [PMBN] 0, Table 4a): 0.38 µg/mL
- MIC ([15]; [PMBN] 100, Table 4a): 0.38 µg/mL
- MIC ([15]; [PMBN] 200, Table 4a): 0.38 µg/mL
- MIC ([15]; [PMBN] 300, Table 4a): 0.38 µg/mL
- MIC ([16]; [PMBN] 0, Table 4a): 3 µg/mL
- MIC ([16]; [PMBN] 100, Table 4a): 3 µg/mL
- MIC ([16]; [PMBN] 200, Table 4a): 3 µg/mL
- MIC ([16]; [PMBN] 300, Table 4a): 3 µg/mL
- MIC ([17]; [PMBN] 0, Table 4a): 1.5 µg/mL
- MIC ([17]; [PMBN] 100, Table 4a): 4 µg/mL
- MIC ([17]; [PMBN] 200, Table 4a): 2 µg/mL
- MIC ([17]; [PMBN] 300, Table 4a): 1.5 µg/mL
- MIC ([18]; E. aerogenes EA 5 (porin−), [PMBN] 0, Table 4): 6 µg/mL
- MIC ([18]; E. aerogenes EA 5 (porin−), [PMBN] 50 μg/ml): 4 µg/mL
- MIC ([18]; E. aerogenes EA 5 (porin−), [PMBN] 100 μg/ml): 4 µg/mL
- MIC ([18]; E. aerogenes EA 5 (porin−), [PMBN] 150 μg/ml): 4 µg/mL
- MIC ([18]; E. aerogenes EA 5 (porin−), [PMBN] 200 μg/ml): 3 µg/mL
- MIC ([18]; EA 5 (porin−), [PMBN] 0, Table 2): 4 µg/mL
- MIC ([18]; EA 5 (porin−), [PMBN] MIC/5): 2 µg/mL
- MIC ([18]; EA 5 (porin−), [PMBN] MIC/8): 2 µg/mL
- MIC ([18]; EA 5 (porin−), [PMBN] MIC/10): 2 µg/mL
- MIC ([19]; [PMBN] 0): 0.5 µg/mL
- MIC ([19]; [PMBN] 50 μg/ml): 0.38 µg/mL
- MIC ([19]; [PMBN] 100 μg/ml): 0.25 µg/mL
- MIC ([19]; [PMBN] 150 μg/ml): 0.19 µg/mL
- MIC ([19]; [PMBN] 200 μg/ml): 0.19 µg/mL
